# In US7410975B2, “Small molecule toll-like receptor (TLR) antagonists” (Coley Pharmaceutical Group, Inc., priority 2003, dated 2008):
# Molecular target: T1, human TLR9 (hTLR9) (Homo sapiens, UniProt Q9NR96)
# T1 construct: expressed in transfected cells
# T1 sequence (Q9NR96 26-1032): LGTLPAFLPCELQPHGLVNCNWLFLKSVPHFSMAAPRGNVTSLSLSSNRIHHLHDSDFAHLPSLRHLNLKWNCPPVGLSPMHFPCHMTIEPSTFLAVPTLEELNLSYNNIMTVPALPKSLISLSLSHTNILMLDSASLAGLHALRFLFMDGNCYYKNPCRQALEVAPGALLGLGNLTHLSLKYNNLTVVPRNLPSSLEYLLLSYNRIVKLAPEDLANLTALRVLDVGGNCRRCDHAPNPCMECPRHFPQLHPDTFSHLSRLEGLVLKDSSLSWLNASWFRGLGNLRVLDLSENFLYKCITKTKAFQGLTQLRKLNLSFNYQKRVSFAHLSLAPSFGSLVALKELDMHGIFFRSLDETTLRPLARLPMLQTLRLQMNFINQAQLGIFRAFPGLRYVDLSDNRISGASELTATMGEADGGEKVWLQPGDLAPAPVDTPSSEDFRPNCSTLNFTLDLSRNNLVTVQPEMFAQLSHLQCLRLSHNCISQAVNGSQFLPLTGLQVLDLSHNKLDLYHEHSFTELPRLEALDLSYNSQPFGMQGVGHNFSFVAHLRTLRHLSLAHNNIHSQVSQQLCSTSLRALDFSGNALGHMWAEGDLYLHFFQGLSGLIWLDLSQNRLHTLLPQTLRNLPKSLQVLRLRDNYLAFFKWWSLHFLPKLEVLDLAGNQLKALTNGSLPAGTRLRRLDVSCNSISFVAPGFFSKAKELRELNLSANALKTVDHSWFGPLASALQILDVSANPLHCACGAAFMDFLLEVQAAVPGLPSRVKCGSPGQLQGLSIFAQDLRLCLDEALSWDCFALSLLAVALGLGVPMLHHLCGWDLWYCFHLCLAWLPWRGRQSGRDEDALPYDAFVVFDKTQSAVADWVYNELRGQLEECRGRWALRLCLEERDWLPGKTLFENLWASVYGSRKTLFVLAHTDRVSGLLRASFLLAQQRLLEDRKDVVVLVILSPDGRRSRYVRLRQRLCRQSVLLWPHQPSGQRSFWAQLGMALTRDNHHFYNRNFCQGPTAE
# Assay: Antagonist screen, hTLR9-NFκB-293 cells, 6× NF-κB-luciferase reporter, with EC50 of CpG ODN 2006
# Format: cell-based
# Details: FIG. 1, graph
# In short: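 Luciferase fold induction was compared with the ligand-alone baseline, and antagonism was scored by the lowest concentration giving clear down-regulation.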
row,Compound,inhibition of TLR9 signaling in response to CpG ODN 2006 (FIG. 1)
1,"c1ccc2c(c1)[nH]c1cnccc12 [compound 470, norharman]",concentration-dependent inhibition

# Same assay, conditions: compound at 0.5, 5, 50 μg/ml; EC50 concentration of CpG ODN 2006; 16 h; NF-κB-luciferase
row,Compound,"hTLR9 (inhibitory effect, antagonist score)"
1,CC1CCN(C(=O)c2cccc3c2-c2ccccc2C3=O)CC1 [compound 1243],— (compounds for which there was no clear down regulation even at 50 μg/ml)
2,CN(CCO)C(=O)c1cccc2c1-c1ccccc1C2=O [compound 890],— (compounds for which there was no clear down regulation even at 50 μg/ml)
3,"COc1ccc2[nH]c3c(c2c1)CCN=C3C [compound 621, Methoxy-6-harmalan]",12 (compounds for which there was clear down regulation at 5 μg/ml and 50 μg/ml)
4,CCOCCOC(=O)c1cc([N+](=O)[O-])cc2c1-c1c(cc([N+](=O)[O-])cc1[N+](=O)[O-])C2=C(C#N)C#N [compound 1241],— (compounds for which there was no clear down regulation even at 50 μg/ml)
5,"CN(C)CCCN1c2ccccc2Sc2ccccc21.Cl [compound 693, Promazinehydrochloride]",12 (compounds for which there was clear down regulation at 5 μg/ml and 50 μg/ml)
6,"c1ccc2c(c1)[nH]c1cnccc12 [compound 470, norharman]",11 (compounds for which there was clear down regulation only at 50 μg/ml)
7,O=C1c2ccccc2C(=O)c2c1ccc1c(=O)n(-c3ccccc3)[nH]c21 [compound 1042],12 (compounds for which there was clear down regulation at 5 μg/ml and 50 μg/ml)
8,"Clc1ccccc1C(c1ccccc1)(c1ccccc1)n1ccnc1 [compound 267, Clotrimazole]",— (compounds for which there was no clear down regulation even at 50 μg/ml)
9,"CN1CCN(C(c2ccccc2)c2ccccc2)CC1.Cl [compound 510, Cyclizine hydrochloride]",11 (compounds for which there was clear down regulation only at 50 μg/ml)
10,O=C1c2ccccc2C(=O)c2c1ccc1c(=O)n(C3CCCCC3)[nH]c21 [compound 1015],11 (compounds for which there was clear down regulation only at 50 μg/ml)
11,O=C(O)c1cc(C(c2ccc(O)c(C(=O)O)c2)C(Cl)(Cl)Cl)ccc1O [compound 884],— (compounds for which there was no clear down regulation even at 50 μg/ml)
12,Metixene hydrochloride [compound 491],12 (compounds for which there was clear down regulation at 5 μg/ml and 50 μg/ml)
13,"CC[C@]12CCCN3CCc4c(n(c5ccccc45)C(=O)C1)[C@@H]32 [compound 607, Eburnamonine]",— (compounds for which there was no clear down regulation even at 50 μg/ml)
14,NC(=O)c1cccc2c1-c1ccccc1C2 [compound 1132],— (compounds for which there was no clear down regulation even at 50 μg/ml)
15,"Cl.Cl.c1ccc2c3c([nH]c2c1)C1C2CCC(C4CCCNC42)N1CC3 (stereo not shown) [compound 685, Nitrarine dihydorchloride]",11 (compounds for which there was clear down regulation only at 50 μg/ml)
16,"CN(C)CC/C=C1/c2ccccc2CSc2ccccc21.Cl [compound 488, Dosulepin hydrochloride]",12 (compounds for which there was clear down regulation at 5 μg/ml and 50 μg/ml)
17,"Cc1cccc(CN2CCN(C(c3ccccc3)c3ccc(Cl)cc3)CC2)c1.Cl.Cl (stereo not shown) [compound 457, Meclozinedihydrochioride]",11 (compounds for which there was clear down regulation only at 50 μg/ml)
18,"CNCCCN1c2ccccc2CCc2ccccc21.Cl [compound 343, Desipraminehydrochloride]",12 (compounds for which there was clear down regulation at 5 μg/ml and 50 μg/ml)
19,O=C(O)c1ccc(C2(c3ccc(C(=O)O)cc3)OC(=O)c3ccccc32)cc1 [compound 970],11 (compounds for which there was clear down regulation only at 50 μg/ml)
20,C=CCc1ccccc1OC1(c2ccccc2)OC(=O)c2ccccc21 (stereo not shown) [compound 957],12 (compounds for which there was clear down regulation at 5 μg/ml and 50 μg/ml)
21,"CN1CCC(OC(c2ccccc2)c2ccccc2)CC1.Cl [compound 707, Diphenylpyralinehydrochloride]",12 (compounds for which there was clear down regulation at 5 μg/ml and 50 μg/ml)
